Experimental data published in US20170050989A1, “Molecular Imaging Probes” (THE GENERAL HOSPITAL CORPORATION, priority 2013, published 2017).
Entries after “also recorded” stand apart in the source; their conditions may differ.

Columns and labels:
[1] = T1 relaxivity of probe in solution (water) without protein; format: physicochemical; settings: no protein, 310K, pH 7, 0.47 T
Experimental: (§1) Aliquots of BSA-ALD (3 mg, 150 μL) or BSA (3mg, 163 μL) were treated for 24 h at 37° C. with either Compound 1 or Compound 2 at a range of concentrations (0.1-1.0 mM, concentrations equivalent to [Gd]:[aldehyde] ratio of 1:1, 2:1, 3:1, 4:1 and 5:1) with a total volume of 300 μl maintained for all samples. After 24 h longitudinal (T1) relaxation measurements were recorded using a Bruker mq20 Minispec at 0.47 T and 37° C. Longitudinal (T1) relaxation was acquired via an inversion recovery experiment on 10 inversions of duration ranging between 0.05×T1 and 10×T1. Relaxivity (r1) was determined from the slope of a plot of 1/T1 vs [Gd] for 5 concentrations of Gd(III).
Solutions of Compound 1 and Compound 2 (concentration range: 0.1 mM-1.0 mM, in water) were run in parallel without protein as standard controls.

[2] = tested on: liver fibrosis (CCl4-treated mice); assay: MR liver imaging in mice after 6 or 12 weeks of CCl4 treatment, or 6 weeks plus recovery; format: in vivo; settings: for ΔCNR (liver:muscle contrast-to-noise ratio): 15-minute post injection; for liver signal enhancement post vs pre injection (in words): 15 min post injection
Experimental: Strain A/J male mice (Jackson Laboratories, Bar Harbor, Me.) were administered 0.1 ml of a 40% solution of CCl4 (Sigma, St. Louis, Mo.) in olive oil by oral gavage, three times a week for either 6 (n=14) or 12 weeks (n=10), to induce fibrosis at different stages. Controls received only pure olive oil (n=12).
Animals were imaged prior to and immediately following injection of the imaging probe. After imaging, the animals were sacrificed and the liver was removed for histopathological analyses.
Animals were anesthetized with isoflurane (1-2%) and placed in a specially designed cradle with body temperature maintained at 37° C. The tail vein was cannulated for intravenous (iv) delivery of the contrast agent while the animal was positioned in the scanner. Imaging was performed at 4.7T using a small bore animal scanner (Bruker Biospec) with a custom-built volume coil. The mouse was imaged prior to and following a bolus iv injection of Compound 1 (100 μmol/kg). The image sequence was a three dimensional fast low angle shot (3D FLASH) acquisition with repetition time (TR=15.3 ms), echo time (TE=1.54 ms), flip angle=15°, field of view 48×24×24 mm and matrix size 192×96×96 for a resolution of 250 μm isotropic and […] used 4 averages.
Image analysis was performed using the Osirix software. A region of interest (ROI) was manually traced encompassing the liver parenchyma while avoiding major blood vessels. A second ROI was placed on the dorsal muscle visible in the same image slice to quantify the signal intensity in the muscle for comparison. Seven ROIs were placed in the field of view without any tissue (air) to measure the noise in the image. More than 20 axial slices per mouse across the entire liver was analyzed in this fashion. The same analysis was performed on the pre-injection and 15-minute post injection images.
To quantify signal enhancement in the liver, contrast to noise ratio (CNR) was calculated using equation 1 below. SI=signal intensity, SD=standard deviation. An average of all image slices was calculated for the pre-injection images (CNRpre) and for the post-injection images (CNRpos). The liver enhancement for each mouse was expressed as ΔCNR, the difference between the pre-injection CNR and post-injection CNR (equation 2).
(§2) CNR=(SIliver−SImuscle)/SDair (1)
Differences among groups were tested with repeated measures ANOVA, followed by Student-Newman-Keuls post hoc test with P<0.05 considered as significant.
Strain A/J male mice (Jackson Laboratories, Bar Harbor, Me.) were administered 0.1 ml of a 40% solution of CCl4 (Sigma, St. Louis, Mo.) in olive oil by oral gavage, three times a week for 6 weeks and then allowed to recover for an additional 6 weeks (n=7). Animals were imaged prior to and immediately following injection of the imaging probe using the same protocol as in the previous example.
We compared Compound 2 to Compound 1 in terms of their ability to image fibrosis. Compound 2 has a very similar structure to Compound 1 but the hydrazide functional group has been dimethylated. The resulting dimethylhydrazide in Compound 2 is incapable of undergoing irreversible reaction with aldehyde moieties. Using the same animal model and imaging paradigm as described in the previous Example, mice that had been treated with CCl4 for 12 weeks or mice that received vehicle for 12 weeks were imaged.

[3] = target: T1, modified bovine serum albumin (BSA-ALD) (Bos taurus, UniProt P02769); assay: T1 relaxivity/relaxation after incubation with aldehyde-modified BSA; format: binding
T1 sequence (P02769 25-607): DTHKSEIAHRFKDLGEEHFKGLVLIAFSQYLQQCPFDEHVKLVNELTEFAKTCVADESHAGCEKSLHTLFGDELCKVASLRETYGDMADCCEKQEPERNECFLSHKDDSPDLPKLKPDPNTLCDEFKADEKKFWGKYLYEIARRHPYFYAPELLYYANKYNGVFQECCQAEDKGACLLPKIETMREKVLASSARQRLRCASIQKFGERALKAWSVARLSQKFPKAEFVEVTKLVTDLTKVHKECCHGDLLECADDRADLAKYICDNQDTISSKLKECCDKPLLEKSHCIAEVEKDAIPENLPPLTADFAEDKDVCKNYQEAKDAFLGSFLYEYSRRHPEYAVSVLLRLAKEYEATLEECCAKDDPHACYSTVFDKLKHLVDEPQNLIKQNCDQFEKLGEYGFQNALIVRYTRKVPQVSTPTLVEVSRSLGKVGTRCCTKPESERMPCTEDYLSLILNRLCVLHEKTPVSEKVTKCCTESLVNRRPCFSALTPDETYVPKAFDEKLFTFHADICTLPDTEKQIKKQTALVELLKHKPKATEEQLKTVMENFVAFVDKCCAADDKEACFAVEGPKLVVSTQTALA
Experimental: (§3) A solution of glutaraldehyde (100 μL, 25% wt solution in water) was added to a solution of bovine serum albumin (100 mg) dissolved in phosphate buffered saline (2 mL, pH 7.4, 0.25 mM) and left to stir at room temperature for 5 min. To this solution was added sodium cyanoborohydride (25 mg) and the solution stirred overnight at 4° C. A BSA protein standard without the addition of glutaraldehyde was run in parallel as a control. Both protein mixtures were purified on PD-10 Sephadex G25 desalting columns (GE Healthcare), eluted with water, to remove excess glutaraldehyde. Protein concentrations were assessed using the ‘BCA Protein Assay Kit’ (Thermo Scientific). […] The aldehyde concentration of each protein was estimated using a standard DNPH literature protocol.
as §1, with “Longitudinal (T1) relaxation was acquired via an inversion recovery experiment on 10 inversions of duration ranging between 0.05×T1 and 10×T1.” left out, “Gd(III). […]” for “Gd(III).”

[4] = target: T2, unmodified bovine serum albumin (BSA) (Bos taurus, UniProt P02769); assay: T1 relaxivity/relaxation after incubation with unmodified BSA; format: binding
T2 construct: A BSA protein standard without the addition of glutaraldehyde was run in parallel as a control
T2 sequence (P02769 25-607): as above
Experimental: as §3
as §1, with “Longitudinal (T1) relaxation was acquired via an inversion recovery experiment on 10 inversions of duration ranging between 0.05×T1 and 10×T1.” left out, “Gd(III). […]” for “Gd(III).”

[5] = target: T2, unmodified bovine serum albumin (BSA); assay: In vitro binding assay: Gd bound to protein after ultrafiltration (ICP); settings: protein fraction after separation from free solution
[6] = target: T1, modified bovine serum albumin (BSA-ALD); assay: as above; settings: protein fraction after separation from free solution
[7] = tested on: fibrotic liver (CCl4 mice); assay: MR liver imaging in CCl4 mouse model of liver fibrosis (18 weeks); format: in vivo; settings: fibrotic (CCl4-treated) mouse, pre vs 30-minute post administration
Experimental: Liver Fibrosis: Strain A/J male mice (Jackson Laboratories, Bar Harbor, Me.) were administered 0.1 mL of a 40% solution of CCl4 (Sigma, St. Louis, Mo.) in olive oil by oral gavage three times a week for 18 weeks to induce fibrosis. Controls received only pure olive oil. Animals were imaged one week after the last injection to avoid acute effects of CCl4.
Mice were imaged with T1-weighted imaging before and after bolus (tail vein) injection of probe (Compound 1 or Compound 2) using a 4.7T scanner. Image visualization and quantification was performed using the DICOM viewer Osirix. A region of interest (ROI) was placed over the entire liver section while avoiding major blood vessels. Axial slices that cover the entire liver is analyzed (>10 slices/mouse). The signal intensity of the muscle within each slice was also quantified by a separate ROI. To estimate noise, an ROI of the air outside the animal was measured and the standard deviation of this measurement was taken. The same analysis was performed on the pre and 30-min post injection images (3D FLASH sequence).
Contrast to noise ratio (CNR) is calculated using equation (1). SI=signal intensity, SD=standard deviation, and delta CNR is the absolute difference between the pre- and post- images (2).
as §2
Delta CNR={CNRpost−CNRpre} (2)

- T1 relaxivity, standard solution measurement [1]: 4.09 mM⁻¹ s⁻¹
- T1 relaxivity with BSA-ALD ([3]; incubated 24 h at 37° C. with BSA-ALD, 310K, pH 7, 0.47 T): 4.22 mM⁻¹ s⁻¹
- change in T1 relaxation time of protein fraction compared to solution controls ([3]; protein fraction after separation, BSA-ALD (FIG. 5A)): did not differ significantly
- change in T1 relaxation time compared to standards ([4]; fractions after separation, BSA (FIG. 5A)): did not differ significantly
- T1 relaxivity with BSA ([4]; incubated 24 h at 37° C. with BSA, 310K, pH 7, 0.47 T): 4.20 mM⁻¹ s⁻¹
- Gd bound to protein [5]: No statistically significant amount
- Gd bound to protein [6]: No statistically significant amount
Structure (SMILES): CN(C)NC(=O)CC[C@H](C(=O)O)N1CCN(CC(=O)[O-])CCN(CC(=O)[O-])CCN(CC(=O)[O-])CC1.[Gd+3] [Compound 2, (R)-2,2′,2″-(10-(1-carboxy-4-(2,2-dimethylhydrazinyl)-4-oxobutyl)-1,4,7,10-tetraazacyclododecane-1,4,7-triyl)triacetic acid Gadolinium complex]
- increase in ΔCNR, 12-week CCl4-treated vs vehicle ([2]; 12-week CCl4-treated animals vs vehicle): no difference
- ΔCNR (liver:muscle contrast-to-noise ratio) ([2]; 12-week CCl4-treated mice): 0.5±0.5
- liver signal enhancement post vs pre injection (in words) ([2]; 12-week CCl4-treated mice): slight enhancement
- ΔCNR (liver:muscle contrast-to-noise ratio) ([2]; vehicle (olive oil) treated control mice, probe injected iv): 0.6±0.9
- liver signal enhancement post vs pre injection (in words) ([2]; vehicle treated mice): slight enhancement
- MR signal enhancement of liver [7]: very little enhancement; also recorded: little MR signal enhancement
